Test system: Endogenous Huntingtin Protein
Assay: Endogenous Huntingtin Protein Assay (ELISA-based Meso Scale Discovery electrochemiluminescence)
Type: cell-based
Conditions: MSD electrochemiluminescence, Table 1
Procedure: Compounds of Formula (I) or Formula (II) were tested using the Meso Scale Discovery (MSD) Assay provided in International Application No. PCT/US2016/066042, filed on Dec. 11, 2016 and claiming priority to U.S. Provisional Application 62/265,652 filed on Dec. 10, 2015, the entire contents of which are incorporated herein by reference.
The Endogenous Huntingtin Protein assay used in Example 1 was developed using the ELISA-based MSD electrochemiluminescence assay platform.
Endogenous Huntingtin Protein Assay
Meso Scale Discovery (MSD) 96-well or 384-well plates were coated overnight at 4° C. with MW1 (expanded polyglutamine) or MAB2166 monoclonal antibody (for capture) at a concentration of 1 μg/mL in PBS (30 μL per well). Plates were then washed three times with 300 μL wash buffer (0.05% Tween-20 in PBS) and blocked (100 μL blocking buffer; 5% BSA in PBS) for 4-5 hours at room temperature with rotational shaking and then washed three times with wash buffer.
Samples (25 μL) were transferred to the antibody-coated MSD plate and incubated overnight at 4° C. After removal of the lysates, the plate was washed three times with wash buffer, and 25 μL of #5656S (Cell signaling; rabbit monoclonal) secondary antibody (diluted to 0.25 μg/mL in 0.05% Tween-20 in blocking buffer) was added to each well and incubated with shaking for 1 Hour at room temperature. Following incubation with the secondary antibody, the wells were rinsed with wash buffer after which 25 μL of goat anti-rabbit SULFO TAG secondary detection antibody (required aspect of the MSD system) (diluted to 0.25 μg/mL in 0.05% Tween-20 in blocking buffer) was added to each well and incubated with shaking for 1 hour at room temperature. After rinsing three times with wash buffer, 150 μL of read buffer T with surfactant (MSD) were added to each empty well, and the plate was imaged on a SI 6000 imager (MSD) according to manufacturers' instructions provided for 96- or 384-well plates.

Molecule | IC50
2-(3-{[(3S,4S)-3-fluoro-2,2,6,6-tetramethylpiperidin-4-yl]amino}-1,2,4-triazin-6-yl)-5-(1H-imidazol-1-yl)phenol [Cpd 238] | ≤ 100 nM
2-{3-{[(2S)-2-aminopropyl](methyl)amino}-1,2,4-triazin-6-yl)-5-(1H-pyrazol-4-yl)phenol [Cpd 190] | ≤ 100 nM
5-(5-fluoro-1H-pyrazol-4-yl)-2-{6-[methyl(2,2,6,6-tetramethylpiperidin-4-yl)amino]-1,2,4-triazin-3-yl}phenol [Cpd 191] | ≤ 100 nM
5-[1-(^2H3)methyl-1H-pyrazol-4-yl]-2-{6-[methyl(2,2,6,6-tetramethylpiperidin-4-yl)amino]-1,2,4-triazin-3-yl}phenol [Cpd 192] | 100 to 500 nM
Cc1cnc(-c2ccc(-c3cnc(N(C)C4CC(C)(C)NC(C)(C)C4)nn3)c(O)c2)o1 [Cpd 1, 5-(5-methyl-1,3-oxazol-2-yl)-2-{3-[methyl(2,2,6,6-tetramethylpiperidin-4-yl)amino]-1,2,4-triazin-6-yl}phenol] | > 500 nM
COc1cc(-c2ccc(-c3cnc(N(C)C4CC(C)(C)NC(C)(C)C4)nn3)c(O)c2)ncn1 [Cpd 2, 5-(6-methoxypyrimidin-4-yl)-2-{3-[methyl(2,2,6,6-tetramethylpiperidin-4-yl)amino]-1,2,4-triazin-6-yl}phenol] | ≤ 100 nM
COc1cc(-c2ccc(-c3cnc(N(C)C4CC(C)(C)NC(C)(C)C4)nn3)c(O)c2)ccn1 [Cpd 3, 5-(2-methoxypyridin-4-yl)-2-{3-[methyl(2,2,6,6-tetramethylpiperidin-4-yl)amino]-1,2,4-triazin-6-yl}phenol] | ≤ 100 nM
CN(c1ncc(-c2ccc(-c3c[nH]nn3)cc2O)nn1)C1CC(C)(C)NC(C)(C)C1 [Cpd 4, 2-{3-[methyl(2,2,6,6-tetramethylpiperidin-4-yl)amino]-1,2,4-triazin-6-yl}-5-(1H-1,2,3-triazol-4-yl)phenol] | ≤ 100 nM
CN(c1ncc(-c2ccc(-c3ccnc(O)c3)cc2O)nn1)C1CC(C)(C)NC(C)(C)C1 [Cpd 5, 4-(3-hydroxy-4-{3-[methyl(2,2,6,6-tetramethylpiperidin-4-yl)amino}-1,2,4-triazin-6-yl}phenyl)pyridin-2-ol] | ≤ 100 nM
Cc1n[nH]cc1-c1ccc(-c2cnc(N(C)C3CC(C)(C)NC(C)(C)C3)nn2)c(O)c1 [Cpd 6, 5-(3-methyl-1H-pyrazol-4-yl)-2-{3-[methyl(2,2,6,6-tetramethylpiperidin-4-yl)amino]-1,2,4-triazin-6-yl}phenol] | ≤ 100 nM
CN(c1ncc(-c2ccc(-c3ncco3)cc2O)nn1)C1CC(C)(C)NC(C)(C)C1 [Cpd 7, 2-{3-[methyl(2,2,6,6-tetramethylpiperidin-4-yl)amino]-1,2,4-triazin-6-yl}-5-(1,3-oxazol-2-yl)phenol] | ≤ 100 nM
CN(c1ncc(-c2ccc(-c3ccncc3)cc2O)nn1)C1CC(C)(C)NC(C)(C)C1 [Cpd 8, 2-{3-[methyl(2,2,6,6-tetramethylpiperidin-4-yl)amino]-1,2,4-triazin-6-yl}-5-(pyridin-4-yl)phenol] | ≤ 100 nM
Cc1cc(-c2ccc(-c3cnc(N(C)C4CC(C)(C)NC(C)(C)C4)nn3)c(O)c2)ccn1 [Cpd 9, 5-(2-methylpyridin-4-yl)-2-{3-[methyl(2,2,6,6-tetramethylpiperidin-4-yl)amino]-1,2,4-triazin-6-yl}phenol] | ≤ 100 nM
Cc1cn(-c2ccc(-c3cnc(N(C)C4CC(C)(C)NC(C)(C)C4)nn3)c(O)c2)cn1 [Cpd 10, 5-(4-methyl-1H-imidazol-1-yl)-2-{3-[methyl(2,2,6,6-tetramethylpiperidin-4-yl)amino]-1,2,4-triazin-6-yl}phenol] | ≤ 100 nM
CC1(C)CC(Oc2ncc(-c3ccc(-c4cn[nH]c4)cc3O)nn2)CC(C)(C)N1 [Cpd 11, 5-(1H-pyrazol-4-yl)-2-{3-[(2,2,6,6-tetramethylpiperidin-4-yl)oxy]-1,2,4-triazin-6-yl}phenol] | ≤ 100 nM
CN(c1ncc(-c2ccc(-c3c[nH]nc3F)cc2O)nn1)C1CC(C)(C)NC(C)(C)C1 [Cpd 12, 5-(3-fluoro-1H-pyrazol-4-yl)-2-{3-[methyl(2,2,6,6-tetramethylpiperidin-4-yl)amino]-1,2,4-triazin-6-yl}phenol] | ≤ 100 nM
CC1(C)CC(Nc2ncc(-c3ccc(-c4cn[nH]c4)cc3O)nn2)CC(C)(C)N1 [Cpd 13, 5-(1H-pyrazol-4-yl)-2-{3-[(2,2,6,6-tetramethylpiperidin-4-yl)amino]-1,2,4-triazin-6-yl}phenol] | ≤ 100 nM

Molecule | IC50
[2H]C([2H])([2H])n1cc(-c2ccc(-c3cnc(N(C)C4CC(C)(C)NC(C)(C)C4)nn3)c(O)c2)cn1 [Cpd 14, 5-[1-(^2H3)methyl-1H-pyrazol-4-yl]-2-{3-[methyl(2,2,6,6-tetramethylpiperidin-4-yl)amino]-1,2,4-triazin-6-yl}phenol] | ≤ 100 nM
CN(c1ncc(-c2ccc(-c3cn[nH]c3)cc2O)nn1)C1CC(C)(C)NC(C)(C)C1 [Cpd 15, 2-{3-[methyl(2,2,6,6-tetramethylpiperidin-4-yl)amino]-1,2,4-triazin-6-yl}-5-(1H-pyrazol-4-yl)phenol] | ≤ 100 nM
CN(c1ncc(-c2ccc(-c3cnn(C)c3)cc2O)nn1)C1CC(C)(C)NC(C)(C)C1 [Cpd 16] | ≤ 100 nM
CN(c1ncc(-c2ccc(-n3cccn3)cc2O)nn1)C1CC(C)(C)NC(C)(C)C1 [Cpd 17, 2-{3-[methyl(2,2,6,6-tetramethylpiperidin-4-yl)amino]-1,2,4-triazin-6-yl}-5-(1H-pyrazol-1-yl)phenol] | 100 to 500 nM
CN(c1ncc(-c2ccc(-c3cn(C)nc3F)cc2O)nn1)C1CC(C)(C)NC(C)(C)C1 [Cpd 18, 5-(3-fluoro-1-methyl-1H-pyrazol-4-yl)-2-{3-[methyl(2,2,6,6-tetramethylpiperidin-4-yl)amino]-1,2,4-triazin-6-yl}phenol] | ≤ 100 nM
CN(c1ncc(-c2ccc(-c3cn[nH]c3)cc2O)nn1)C1CCNCC1 [Cpd 19, 2-{3-[methyl(piperidin-4-yl)amino]-1,2,4-triazin-6-yl}-5-(1H-pyrazol-4-yl)phenol] | ≤ 100 nM
CN(c1ncc(-c2ccc(-c3cn[nH]c3)cc2O)nn1)C1CCCNC1 (stereo not drawn) [Cpd 20, 2-{3-[methyl(piperidin-3-yl)amino]-1,2,4-triazin-6-yl}-5-(1H-pyrazol-4-yl)phenol] | > 500 nM
CN(c1ncc(-c2ccc(-c3cn[nH]c3)cc2O)nn1)C1C[C@H]2CC[C@@H](C1)N2 (stereo partly drawn) [Cpd 21, 2-(3-{[(1R,3S,5S)-8-azabicyclo[3.2.1]octan-3-yl](methyl)amino}-1,2,4-triazin-6-yl)-5-(1H-pyrazol-4-yl)phenol] | ≤ 100 nM
CN(c1ncc(-c2ccc(-c3cn[nH]c3)cc2O)nn1)C1C[C@H]2CCC[C@@H](C1)N2 (stereo partly drawn) [Cpd 22, 2-(3-{[(1R,3S,5S)-9-azabicyclo[3.3.1]nonan-3-yl](methyl)amino}-1,2,4-triazin-6-yl)-5-(1H-pyrazol-4-yl)phenol] | ≤ 100 nM
CN(c1ncc(-c2ccc(-c3cnn(C)n3)cc2O)nn1)C1CC(C)(C)NC(C)(C)C1 [Cpd 23, 2-{3-[methyl(2,2,6,6-tetramethylpiperidin-4-yl)amino]-1,2,4-triazin-6-yl}-5-(2-methyl-2H-1,2,3-triazol-4-yl)phenol] | ≤ 100 nM
CN(c1cnc(-c2ccc(-c3cn[nH]c3)cc2O)nn1)C1CC(C)(C)NC(C)(C)C1 [Cpd 24, 2-{6-[methyl(2,2,6,6-tetramethylpiperidin-4-yl)amino]-1,2,4-triazin-3-yl}-5-(1H-pyrazol-4-yl)phenol] | 100 to 500 nM
CN(c1ncc(-c2ccc(-c3ncnc(O)n3)cc2O)nn1)C1CC(C)(C)NC(C)(C)C1 [Cpd 33, 4-(3-hydroxy-4-{3-[methyl(2,2,6,6-tetramethylpiperidin-4-yl)amino]-1,2,4-triazin-6-yl}phenyl)-1,3,5-triazin-2-ol] | 1000 to 3000 nM
CN(c1ncc(-c2ccc(-n3cnc(F)c3)cc2O)nn1)C1CC(C)(C)NC(C)(C)C1 [Cpd 50, 5-(4-fluoro-1H-imidazol-1-yl)-2-{3-[methyl(2,2,6,6-tetramethylpiperidin-4-yl)amino]-1,2,4-triazin-6-yl}phenol] | ≤ 100 nM
Cc1ncn(-c2ccc(-c3cnc(N(C)C4CC(C)(C)NC(C)(C)C4)nn3)c(O)c2)n1 [Cpd 51, 2-{3-[methyl(2,2,6,6-tetramethylpiperidin-4-yl)amino]-1,2,4-triazin-6-yl}-5-(3-methyl-1H-1,2,4-triazol-1-yl)phenol] | > 500 nM
CN1CCC(Nc2ncc(-c3ccc(-c4cn[nH]c4)cc3O)nn2)CC1 [Cpd 52, 2-{3-[(1-methylpiperidin-4-yl)amino]-1,2,4-triazin-6-yl}-5-(1H-pyrazol-4-yl)phenol] | 100 to 500 nM
CN(c1ncc(-c2ccc(-c3cccs3)cc2O)nn1)C1CC(C)(C)NC(C)(C)C1 [Cpd 53, 2-{3-[methyl(2,2,6,6-tetramethylpiperidin-4-yl)amino]-1,2,4-triazin-6-yl}-5-(thiophen-2-yl)phenol] | 100 to 500 nM
